US20200268847A1, “Methods of Treating Newly Diagnosed Multiple Myeloma with a Combination of An Antibody that Specifically Binds CD38, Lenalidomide and Dexamethasone” (Janssen Biotech, Inc., priority 2019, published 2020)

System: newly diagnosed multiple myeloma, patients ineligible for HDC and ASCT
Experiment: Phase 3 MAIA study (NCT02252172), interim analysis: progression-free survival, response by IMWG criteria, survival
Format: in vivo, human
Description: Subject participation will include a Screening Phase, a Treatment Phase, and a Follow-up Phase. The Screening Phase will be up to 21 days before Cycle 1, Day 1. The Treatment Phase will extend from Day 1 of Cycle 1 until discontinuation of all study treatment. […] This will equate to […] of dosing at the start of the study and a total of 23 doses in the first year. Lenalidomide will be administered at a dose of 25 mg orally (PO) on Days 1 through 21 of each 28-day cycle, and dexamethasone will be administered at a dose of 40 mg once a week. Subjects in both treatment arms will continue lenalidomide and dexamethasone until disease progression or unacceptable toxicity. […] Randomization will be stratified by International Staging System (I vs II vs III), region (North America vs Other), and age (<75 vs >75), using an equal allocation ratio of 1:1.
The primary endpoint is PFS, which is defined as the duration from the date of randomization to either progressive disease, or death, whichever occurs first. Disease progression will be determined according to the IMWG criteria.
The secondary efficacy endpoints include: • Time to disease progression (TTP) is defined as the time from the date of randomization to the date of first documented evidence of PD, as defined in the IMWG criteria. […] Disease progression will be based on investigator judgment. For those subjects who are still alive and not yet progressed on the next line of treatment, they will be censored on the last date of follow-up. • Overall survival (OS), measured from the date of randomization to the date of the subject's death. […] For subjects without response, data will be censored either at the date of progressive disease or, in the absence of progressive disease, at the last disease evaluation before the start of subsequent anti-myeloma therapy. • Duration of response, calculated from the date of initial documentation of a response (PR or better) to the date of first documented evidence of progressive disease, as defined in the IMWG criteria. For subjects who have not progressed, data will be censored at the last disease evaluation before the start of any subsequent anti-myeloma therapy. • To evaluate clinical efficacy of DRd in high risk molecular subgroups compared to Rd alone. • To evaluate the impact of DRd compared to Rd on patient-reported perception of global health.
Disease evaluations will be performed by a central laboratory (unless otherwise specified). This study will use the IMWG consensus recommendations for multiple myeloma treatment response criteria (Durie et al., Leukemia, 20:[…], 2006, Rajkumar et al., Blood, 117:4691-4695, 2011) presented in Table 1. For quantitative immunoglobulin, M-protein, and immunofixation measurements in serum and 24 hour urine, the investigator will use results provided by the central laboratory.
The primary endpoint was progression-free survival. The study protocol is described in Example 1.
Patients were stratified by International Staging System (ISS; I vs. II vs. III), region (North America vs. Other), and age (<75 years vs. >75 years).
During each 28-day cycle, all patients received oral lenalidomide (25 mg, Days 1-21) and oral dexamethasone (40 mg, Days 1, 8, 15, and 22) until disease progression or unacceptable toxicity. For patients older than 75 years of age or with body mass index less than 18.5 kg/m^2, dexamethasone was administered at a dose of 20 mg once weekly. […] Pre-infusion medications were administered to manage infusion reactions.
The primary endpoint was progression-free survival (time from date of randomization to either disease progression or death).

[1] = ITT population, median follow-up 28.0 months

Substance: daratumumab (DARZALEX®) group: daratumumab (DARZALEX®) in combination with lenalidomide and dexamethasone
- events of progression or death while receiving the next line of therapy (155 events in total): 68 patients
- patients with disease progression events (time-to-event analysis of disease progression) (179 events in total): 17.9%
- reduction of the risk of progression or death (DRd vs Rd, primary analysis of MAIA): 44%
- Kaplan-Meier estimate of the 30-month rate of progression-free survival (ITT population): 70.6%
- median time to progression (ITT population): not being reached
- Overall response: No. with response (ITT population (N = 368 vs 369), median follow-up 28.0 months): 342
- median overall survival (ITT population, long-term follow-up ongoing): not reached
- median progression-free survival (ITT population, median follow-up 28 months): not reached
- Best overall response: Complete response [1]: 63 (17.1) no. (%)
- Best overall response: Complete response or better [1]: 175 (47.6) no. (%)
- Best overall response: Partial response [1]: 50 (13.6) no. (%)
- Best overall response: Progressive disease [1]: 1 (0.3) no. (%)
- Best overall response: Response could not be evaluated [1]: 14 (3.8) no. (%)
- Best overall response: Stringent complete response [1]: 112 (30.4) no. (%)
- Best overall response: Very good partial response [1]: 117 (31.8) no. (%)
- Best overall response: Very good partial response or better [1]: 292 (79.3) no. (%)
- Overall response rate [1]: 92.9%
- rate of complete response or better (ITT population, P<0.0001): 47.6%
- rate of very good partial response or better (ITT population, P<0.0001): 79.3%
- treatment discontinued due to progressive disease (at clinical cutoff date Sep. 24, 2018): 14.6%
- 36-month rate of progression-free survival 2 (in vivo): 77.1%
- median duration of response (in vivo): not reached
- median time to complete response or better (in vivo): 10.4 months
- median time to first response among responders (in vivo): 1.05 months
- patients with events of disease progression or death (median follow-up 28.0 months, 240 events in total): 26.4%
- deaths (number of deaths, 138 in total, median follow-up 28.0 months): 62
- median progression-free survival 2 (progression on next line of therapy or death): not reached
